In PubChem BioAssay AID256 (DTP/NCI, 2004):
Where “and” joins values, the source holds several entries; their conditions need not be identical. Equal entries are not always repeated. Inconclusive results and toxic doses are left out. Rule for the calls: active = survival T/C of 150% or more; inactive = T/C below 125% in these data.

Tested on: CD2F1 mice, L1210 leukemia ip, survival T/C
Test: NCI In Vivo Anticancer Drug Screen. Data for tumor model L1210 Leukemia (intraperitoneal) in CD2F1 (CDF1) mice
Conditions: higher = longer survival
Procedure: The antitumor activity of compounds was measured in mice bearing transplantable tumors. Survival or tumor size were measured and the results are expressed as the measurement made in the treated group (T) divided by the measurement made in the vehicle treated control group (C). The tumor model used in this assay is L1210 Leukemia (intraperitoneal) in CD2F1 (CDF1) mice

[1] = endpoint: mean survival time, dose: 100.0 mg/kg/injection, schedule: Q01DX009 (ip), vehicle: saline with Tween-80
[2] = endpoint: mean survival time, dose: 100.0 mg/kg/injection, schedule: Q04DX003 (ip), vehicle: saline
[3] = endpoint: mean survival time, dose: 200.0 mg/kg/injection, schedule: Q01DX009 (ip), vehicle: saline with Tween-80
[4] = endpoint: mean survival time, dose: 200.0 mg/kg/injection, schedule: Q04DX003 (ip), vehicle: saline
[5] = endpoint: mean survival time, dose: 400.0 mg/kg/injection, schedule: Q01DX009 (ip), vehicle: saline with Tween-80
[6] = endpoint: mean survival time, dose: 400.0 mg/kg/injection, schedule: Q04DX003 (ip), vehicle: saline
[7] = endpoint: mean survival time, dose: 25.0 mg/kg/injection, schedule: Q01DX009 (ip), vehicle: saline with Tween-80
[8] = endpoint: mean survival time, dose: 50.0 mg/kg/injection, schedule: Q01DX009 (ip), vehicle: saline with Tween-80
[9] = endpoint: mean survival time, dose: 100.0 mg/kg/injection, schedule: Q04DX003 (ip), vehicle: saline with Tween-80
[10] = endpoint: mean survival time, dose: 200.0 mg/kg/injection, schedule: Q04DX003 (ip), vehicle: saline with Tween-80
[11] = endpoint: mean survival time, dose: 400.0 mg/kg/injection, schedule: Q04DX003 (ip), vehicle: saline with Tween-80
[12] = endpoint: mean survival time, dose: 100.0 mg/kg/injection, schedule: Q04DX002 (ip), vehicle: saline with Tween-80
[13] = endpoint: mean survival time, dose: 200.0 mg/kg/injection, schedule: Q04DX002 (ip), vehicle: saline with Tween-80
[14] = endpoint: mean survival time, dose: 400.0 mg/kg/injection, schedule: Q04DX002 (ip), vehicle: saline with Tween-80

Measured: T/C

COC(=O)CCC1CCC(=O)O1 (centres undefined)
inactive: [1] 98 % of control | [2] 102 % of control | [3] 105 % of control | [4] 100 % of control | [5] 94 % of control | [6] 100 % of control

O=C1[O][Hg][c]2cccc3cccc1c23
inactive: endpoint: mean survival time, dose: 2.5 mg/kg/injection, schedule: Q01DX009 (ip), vehicle: saline with Tween-80 88 % of control | endpoint: mean survival time, dose: 5.0 mg/kg/injection, schedule: Q01DX009 (ip), vehicle: saline with Tween-80 94 % of control | endpoint: mean survival time, dose: 10.0 mg/kg/injection, schedule: Q01DX009 (ip), vehicle: saline with Tween-80 95 % of control

CCCNc1ncc(C(=O)O)c(=O)[nH]1
inactive: endpoint: mean survival time, dose: 1.56 mg/kg/injection, schedule: Q01DX009 (ip), vehicle: saline sonified 100 % of control | endpoint: mean survival time, dose: 3.1 mg/kg/injection, schedule: Q01DX009 (ip), vehicle: saline sonified 100 % of control | endpoint: mean survival time, dose: 6.25 mg/kg/injection, schedule: Q01DX009 (ip), vehicle: saline sonified 102 % of control

CCCCCCCCCCCC(=O)N(C)CCS(=O)(=O)O
inactive: endpoint: mean survival time, dose: 100.0 mg/kg/injection, schedule: Q01DX009 (ip), vehicle: saline 103 % of control | endpoint: mean survival time, dose: 200.0 mg/kg/injection, schedule: Q01DX009 (ip), vehicle: saline 101 % of control | endpoint: mean survival time, dose: 400.0 mg/kg/injection, schedule: Q01DX009 (ip), vehicle: saline 109 % of control

CC/C=N/Nc1ccc([N+](=O)[O-])cc1[N+](=O)[O-]
inactive: endpoint: mean survival time, dose: 12.5 mg/kg/injection, schedule: Q01DX009 (ip), vehicle: saline with Tween-80 91 % of control | [7] 92 % of control | [8] 93 % of control

COc1cc2cc(c1Cl)N(C)C(=O)C[C@H](OC(=O)[C@H](C)N(C)C(C)=O)[C@]1(C)O[C@H]1[C@H](C)[C@@H]1C[C@@](O)(NC(=O)O1)[C@H](OC)C=C/C=C(\C)C2
inactive: endpoint: mean survival time, dose: 0.5 mg/kg/injection, schedule: Q01DX009 (ip), vehicle: saline 104 % of control | endpoint: mean survival time, dose: 1.0 mg/kg/injection, schedule: Q01DX009 (ip), vehicle: saline 109 % of control | endpoint: mean survival time, dose: 2.0 mg/kg/injection, schedule: Q01DX009 (ip), vehicle: saline 107 % of control | endpoint: mean survival time, dose: 32.0 mg/kg/injection, schedule: Q01DX009 (ip), vehicle: saline 91 % of control | endpoint: mean survival time, dose: 8.0 micrograms/kg/injection, schedule: Q01DX009 (ip), vehicle: saline + alcohol 111 % of control | endpoint: mean survival time, dose: 12.0 micrograms/kg/injection, schedule: Q01DX009 (ip), vehicle: saline + alcohol 109 % of control | endpoint: mean survival time, dose: 16.0 micrograms/kg/injection, schedule: Q01DX009 (ip), vehicle: saline + alcohol 112 % of control | endpoint: mean survival time, dose: 32.0 micrograms/kg/injection, schedule: Q01DX009 (ip), vehicle: saline + alcohol 122 % of control | endpoint: mean survival time, dose: 200.0 micrograms/kg/injection, schedule: Q01DX009 (ip), vehicle: saline + alcohol 120 % of control | endpoint: median survival time, dose: 4.0 micrograms/kg/injection, schedule: Q01DX009 (ip), vehicle: clinical formulation 117 % of control | endpoint: median survival time, dose: 8.0 micrograms/kg/injection, schedule: Q01DX009 (ip), vehicle: clinical formulation 117 % of control | endpoint: median survival time, dose: 16.0 micrograms/kg/injection, schedule: Q04DX003 (ip), vehicle: clinical formulation 112 % of control | endpoint: median survival time, dose: 32.0 micrograms/kg/injection, schedule: Q04DX003 (ip), vehicle: clinical formulation 117 % of control | endpoint: median survival time, dose: 64.0 micrograms/kg/injection, schedule: Q01DX001 (ip), vehicle: clinical formulation 110 % of control | endpoint: median survival time, dose: 512.0 micrograms/kg/injection, schedule: Q04DX003 (ip), vehicle: clinical formulation 96 % of control

O=C1c2ccccc2C2c3ccccc3CCN12 (centres undefined)
inactive: [1] 103 % of control | [9] 104 % of control | [3] 97 % of control | [10] 102 % of control | [5] 97 % of control | [11] 102 % of control

COc1ccc(Cc2ccc(O)cc2)cc1
inactive: endpoint: mean survival time, dose: 100.0 mg/kg/injection, schedule: Q01DX009 (ip), vehicle: other 101 % of control | endpoint: mean survival time, dose: 200.0 mg/kg/injection, schedule: Q01DX009 (ip), vehicle: other 101 % of control | endpoint: mean survival time, dose: 400.0 mg/kg/injection, schedule: Q01DX009 (ip), vehicle: other 104 % of control

CC1(CC(=O)O)NC(=O)NC1=O (centres undefined)
inactive: endpoint: mean survival time, dose: 100.0 mg/kg/injection, schedule: Q01DX001 (ip), vehicle: saline 102 % of control | [12] 96 % of control | endpoint: mean survival time, dose: 200.0 mg/kg/injection, schedule: Q01DX001 (ip), vehicle: saline 97 % of control | [13] 101 % of control | endpoint: mean survival time, dose: 400.0 mg/kg/injection, schedule: Q01DX001 (ip), vehicle: saline 100 % of control | [14] 96 % of control

CCOC(=O)C(O)(C(=O)OCC)C(C)C
inactive: [1] 94 % of control | [3] 100 % of control | [5] 94 % of control

CCOC(=O)C(Cc1ccccc1C(=O)NC)c1ccccc1 (centres undefined)
inactive: [9] 94 % of control | [10] 94 % of control | endpoint: mean survival time, dose: 400.0 mg/kg/injection, schedule: Q01DX009 (ip), vehicle: saline sonified 92 % of control | [11] 100 % of control

O=C(O)/C=C/C(=O)Nc1ccc(I)cc1
inactive: [1] 95 % of control | [9] 104 % of control | [3] 111 % of control | [10] 98 % of control | [11] 97 % of control

O=C(O)CCC(=O)c1ccc2c(c1)CCCC2
inactive: endpoint: mean survival time, dose: 1.56 mg/kg/injection, schedule: Q04DX002 (ip), vehicle: saline with Tween-80 97 % of control | endpoint: mean survival time, dose: 3.13 mg/kg/injection, schedule: Q04DX002 (ip), vehicle: saline with Tween-80 97 % of control | endpoint: mean survival time, dose: 6.25 mg/kg/injection, schedule: Q04DX002 (ip), vehicle: saline with Tween-80 97 % of control | endpoint: mean survival time, dose: 12.5 mg/kg/injection, schedule: Q04DX002 (ip), vehicle: saline with Tween-80 104 % of control

Cc1ccc(C)c(C(O)C(=O)O)c1 (centres undefined)
inactive: endpoint: mean survival time, dose: 100.0 mg/kg/injection, schedule: Q04DX002 (ip), vehicle: Klucel (hydroxypropylcellulose) (HPC) 94 % of control | endpoint: mean survival time, dose: 200.0 mg/kg/injection, schedule: Q04DX002 (ip), vehicle: Klucel (hydroxypropylcellulose) (HPC) 105 % of control | endpoint: mean survival time, dose: 400.0 mg/kg/injection, schedule: Q04DX002 (ip), vehicle: Klucel (hydroxypropylcellulose) (HPC) 98 % of control

CC1(CC(C)(C)C2CCCCC2)OCCO1
inactive: endpoint: mean survival time, dose: 25.0 mg/kg/injection, schedule: Q01DX009 (ip), vehicle: Klucel (hydroxypropylcellulose) (HPC) 93 % of control | endpoint: mean survival time, dose: 50.0 mg/kg/injection, schedule: Q01DX009 (ip), vehicle: Klucel (hydroxypropylcellulose) (HPC) 95 % of control | endpoint: mean survival time, dose: 100.0 mg/kg/injection, schedule: Q01DX009 (ip), vehicle: Klucel (hydroxypropylcellulose) (HPC) 91 % of control

COCC1=Nc2c(ncnc2SCc2ccccc2)NN1
inactive: endpoint: mean survival time, dose: 100.0 mg/kg/injection, schedule: Q01DX001 (ip), vehicle: other 95 % of control

O=Cc1cc2c3c(c1)CCCN3CCC2
inactive: [9] 97 % of control | [10] 102 % of control | [11] 94 % of control

O=C1C(O)CC(c2ccccc2)N1c1ccccc1 (centres undefined)
inactive: [9] 95 % of control | [10] 95 % of control | [11] 100 % of control

Cc1cccc(C2=NCCN2)c1C
inactive: endpoint: mean survival time, dose: 5.0 mg/kg/injection, schedule: Q01DX001 (ip), vehicle: saline with Tween-80 95 % of control | endpoint: mean survival time, dose: 10.0 mg/kg/injection, schedule: Q01DX001 (ip), vehicle: saline with Tween-80 97 % of control | endpoint: mean survival time, dose: 20.0 mg/kg/injection, schedule: Q01DX001 (ip), vehicle: saline with Tween-80 97 % of control

O=C1c2cccc(NCCCNCCO)c2C(=O)c2cccc(NCCCNCCO)c21
inactive: endpoint: median survival time, dose: 6.25 mg/kg/injection, schedule: Q01DX009 (ip), vehicle: acid diluted with saline 105 % of control | endpoint: median survival time, dose: 12.5 mg/kg/injection, schedule: Q01DX009 (ip), vehicle: acid diluted with saline 117 % of control | endpoint: median survival time, dose: 25.0 mg/kg/injection, schedule: Q01DX009 (ip), vehicle: acid diluted with saline 116 % of control | endpoint: median survival time, dose: 50.0 mg/kg/injection, schedule: Q01DX009 (ip), vehicle: acid diluted with saline 88 % of control

O=C(OC/C=C/CCl)c1ccc([N+](=O)[O-])cc1
inactive: [7] 95 % of control | [8] 94 % of control | [1] 91 % of control and 94 % of control

CCCCC(C)(C)C
inactive: [9] 99 % of control | [10] 99 % of control | [11] 114 % of control

COc1ccc(COC(=O)Nc2ccc([N+](=O)[O-])cc2)cc1
inactive: [12] 96 % of control | [13] 96 % of control | [14] 96 % of control

Nc1ccc2cc(S(=O)(=O)O)cc(O)c2c1
inactive: [9] 98 % of control | [10] 102 % of control | [11] 98 % of control

CCC/C=N\O
inactive: [2] 110 % of control | [4] 93 % of control | [6] 100 % of control
